Values of other authors, collected in patent US20260284018A1, “DUAL INHIBITORS OF DYRK1A AND 5-HT2 FOR TREATING A BRAIN DISORDER” (THE REGENTS OF THE UNIVERSITY OF CALIFORNIA, priority 2023, published 2026).

Tests used:
Conditions in all cases: 10 μM; cited from earlier work
CDK9 = molecular target: T1, CDK9 (Homo sapiens, UniProt P50750)
T1 construct: purchased Eurofins DiscoverX

EGFR = molecular target: T2, EGFR (Homo sapiens, UniProt P00533)
T2 construct: purchased Eurofins DiscoverX

FLT3 = molecular target: T3, FLT3 (Homo sapiens, UniProt P36888)
T3 construct: purchased Eurofins DiscoverX

MKNK1 = molecular target: T4, MKNK1 (Homo sapiens, UniProt Q9BUB5)
T4 construct: purchased Eurofins DiscoverX (KINOMEscan scanEDGE service)

[1] = molecular target: T5, ABL1(E255K)-phosphorylated (Homo sapiens, UniProt P00519, E255K)
T5 construct: purchased Eurofins DiscoverX

RIOK2 = molecular target: T6, RIOK2 (Homo sapiens, UniProt Q9BVS4)
T6 construct: purchased Eurofins DiscoverX KINOMEscan scanEDGE

VEGFR2 = molecular target: T7, VEGFR2 (Homo sapiens, UniProt P35968)
T7 construct: purchased Eurofins DiscoverX KINOMEscan scanEDGE

PDPK1 = molecular target: T8, PDPK1 (Homo sapiens, UniProt O15530)
T8 construct: purchased Eurofins DiscoverX (KINOMEscan scanEDGE service)

BMPR2 = molecular target: T9, BMPR2 (Homo sapiens, UniProt Q13873)
T9 construct: purchased Eurofins DiscoverX

BRAF = molecular target: T10, BRAF (Homo sapiens, UniProt P15056)
T10 construct: purchased Eurofins DiscoverX

PKAC-alpha = molecular target: T11, PKAC-alpha (Homo sapiens, UniProt P17612)
T11 construct: purchased Eurofins DiscoverX KINOMEscan scanEDGE

[2] = molecular target: T12, JAK2(JH1domain-catalytic) (Homo sapiens, UniProt O60674)
T12 construct: JAK2(JH1domain-catalytic); purchased Eurofins DiscoverX

GSK3B = molecular target: T13, GSK3B (Homo sapiens, UniProt P49841)
T13 construct: purchased Eurofins DiscoverX

ABL1-phosphorylated = molecular target: T14, ABL1-phosphorylated (Homo sapiens, UniProt P00519)
T14 construct: purchased Eurofins DiscoverX

SRPK3 = molecular target: T15, SRPK3 (Homo sapiens, UniProt Q9UPE1)
T15 construct: purchased Eurofins DiscoverX KINOMEscan scanEDGE

YANK3 = molecular target: T16, YANK3 (Homo sapiens, UniProt Q86UX6)
T16 construct: purchased Eurofins DiscoverX KINOMEscan scanEDGE

ERBB2 = molecular target: T17, ERBB2 (Homo sapiens, UniProt P04626)
T17 construct: purchased Eurofins DiscoverX

KIT(V559D, T670I) = molecular target: T18, KIT(V559D, T670I) (Homo sapiens, UniProt P10721, T670I/V559D)
T18 construct: purchased Eurofins DiscoverX

ABL1-nonphosphorylated = molecular target: T19, ABL1-nonphosphorylated (Homo sapiens, UniProt P00519)
T19 construct: purchased Eurofins DiscoverX

PIM1 = molecular target: T20, PIM1 (Homo sapiens, UniProt P11309)
T20 construct: purchased Eurofins DiscoverX (KINOMEscan scanEDGE service)

SNARK = molecular target: T21, SNARK (Homo sapiens, UniProt Q9H093)
T21 construct: purchased Eurofins DiscoverX KINOMEscan scanEDGE

MARK3 = molecular target: T22, MARK3 (Homo sapiens, UniProt P27448)
T22 construct: purchased Eurofins DiscoverX (KINOMEscan scanEDGE service)

ROCK2 = molecular target: T23, ROCK2 (Homo sapiens, UniProt O75116)
T23 construct: purchased Eurofins DiscoverX KINOMEscan scanEDGE

PRKCE = molecular target: T24, PRKCE (Homo sapiens, UniProt Q02156)
T24 construct: purchased Eurofins DiscoverX KINOMEscan scanEDGE

PLK3 = molecular target: T25, PLK3 (Homo sapiens, UniProt Q9H4B4)
T25 construct: purchased Eurofins DiscoverX KINOMEscan scanEDGE

p38-alpha = molecular target: T26, p38-alpha (Homo sapiens, UniProt Q16539)
T26 construct: purchased Eurofins DiscoverX (KINOMEscan scanEDGE service)

MEK1 = molecular target: T27, MEK1 (Homo sapiens, UniProt Q02750)
T27 construct: purchased Eurofins DiscoverX (KINOMEscan scanEDGE service)

BTK = molecular target: T28, BTK (Homo sapiens, UniProt Q06187)
T28 construct: purchased Eurofins DiscoverX

ERK1 = molecular target: T29, ERK1 (Homo sapiens, UniProt P27361)
T29 construct: purchased Eurofins DiscoverX

CDK2 = molecular target: T30, CDK2 (Homo sapiens, UniProt P24941)
T30 construct: purchased Eurofins DiscoverX

DYRK1B = molecular target: T31, DYRK1B (Homo sapiens, UniProt Q9Y463)
T31 construct: purchased Eurofins DiscoverX

ACVR1B = molecular target: T32, ACVR1B (Homo sapiens, UniProt P36896)
T32 construct: purchased Eurofins DiscoverX

PDGFRA = molecular target: T33, PDGFRA (Homo sapiens, UniProt P16234)
T33 construct: purchased Eurofins DiscoverX (KINOMEscan scanEDGE service)

CSF1R = molecular target: T34, CSF1R (Homo sapiens, UniProt P07333)
T34 construct: purchased Eurofins DiscoverX

CDK3 = molecular target: T35, CDK3 (Homo sapiens, UniProt Q00526)
T35 construct: purchased Eurofins DiscoverX

MKNK2 = molecular target: T36, MKNK2 (Homo sapiens, UniProt Q9HBH9)
T36 construct: purchased Eurofins DiscoverX (KINOMEscan scanEDGE service)

T33 sequence (P16234 24-1089): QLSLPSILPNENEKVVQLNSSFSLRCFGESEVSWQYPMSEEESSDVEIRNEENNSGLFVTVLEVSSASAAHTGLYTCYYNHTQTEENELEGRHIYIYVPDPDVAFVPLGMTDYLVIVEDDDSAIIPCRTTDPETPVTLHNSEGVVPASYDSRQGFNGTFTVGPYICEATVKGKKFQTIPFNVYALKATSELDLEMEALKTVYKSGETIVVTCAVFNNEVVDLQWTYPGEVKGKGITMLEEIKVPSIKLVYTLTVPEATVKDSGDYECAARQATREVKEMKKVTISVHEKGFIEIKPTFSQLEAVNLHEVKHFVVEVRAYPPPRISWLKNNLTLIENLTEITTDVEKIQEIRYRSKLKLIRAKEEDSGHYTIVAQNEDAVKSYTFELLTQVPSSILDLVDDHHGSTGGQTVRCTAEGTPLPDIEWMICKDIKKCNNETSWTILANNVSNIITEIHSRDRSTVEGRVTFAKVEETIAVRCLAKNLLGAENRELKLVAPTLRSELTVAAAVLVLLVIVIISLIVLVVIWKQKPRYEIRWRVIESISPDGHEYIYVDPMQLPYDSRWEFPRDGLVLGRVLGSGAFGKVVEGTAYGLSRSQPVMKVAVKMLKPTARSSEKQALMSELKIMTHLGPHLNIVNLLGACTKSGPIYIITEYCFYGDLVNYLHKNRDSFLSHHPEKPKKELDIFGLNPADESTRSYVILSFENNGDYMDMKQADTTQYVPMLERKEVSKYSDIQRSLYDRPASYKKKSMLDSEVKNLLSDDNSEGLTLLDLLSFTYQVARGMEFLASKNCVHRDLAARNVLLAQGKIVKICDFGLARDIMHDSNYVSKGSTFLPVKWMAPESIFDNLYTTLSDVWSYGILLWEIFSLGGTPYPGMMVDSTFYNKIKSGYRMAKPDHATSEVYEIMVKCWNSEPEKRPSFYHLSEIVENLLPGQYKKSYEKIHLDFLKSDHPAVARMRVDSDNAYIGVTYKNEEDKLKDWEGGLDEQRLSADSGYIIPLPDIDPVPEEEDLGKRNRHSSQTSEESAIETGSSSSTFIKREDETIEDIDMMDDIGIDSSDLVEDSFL
T28 sequence (Q06187 whole entry): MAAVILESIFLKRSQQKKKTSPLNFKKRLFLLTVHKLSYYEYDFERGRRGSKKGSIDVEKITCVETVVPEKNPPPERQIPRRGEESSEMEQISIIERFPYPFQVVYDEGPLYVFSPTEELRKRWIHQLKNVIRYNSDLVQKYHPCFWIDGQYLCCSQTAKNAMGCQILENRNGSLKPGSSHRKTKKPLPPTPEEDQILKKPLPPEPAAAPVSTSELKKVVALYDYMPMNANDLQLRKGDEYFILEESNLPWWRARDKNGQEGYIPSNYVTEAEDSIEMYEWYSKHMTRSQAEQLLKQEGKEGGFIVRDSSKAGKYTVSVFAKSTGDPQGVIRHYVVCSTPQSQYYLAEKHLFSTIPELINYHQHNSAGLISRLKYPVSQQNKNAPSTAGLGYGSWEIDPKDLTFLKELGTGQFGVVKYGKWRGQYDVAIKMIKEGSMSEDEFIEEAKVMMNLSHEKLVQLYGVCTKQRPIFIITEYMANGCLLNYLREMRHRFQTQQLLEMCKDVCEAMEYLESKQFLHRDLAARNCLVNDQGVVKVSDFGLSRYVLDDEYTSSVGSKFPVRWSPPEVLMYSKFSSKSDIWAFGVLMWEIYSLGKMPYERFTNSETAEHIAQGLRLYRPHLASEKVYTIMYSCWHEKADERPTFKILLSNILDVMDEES
T13 sequence (P49841 whole entry): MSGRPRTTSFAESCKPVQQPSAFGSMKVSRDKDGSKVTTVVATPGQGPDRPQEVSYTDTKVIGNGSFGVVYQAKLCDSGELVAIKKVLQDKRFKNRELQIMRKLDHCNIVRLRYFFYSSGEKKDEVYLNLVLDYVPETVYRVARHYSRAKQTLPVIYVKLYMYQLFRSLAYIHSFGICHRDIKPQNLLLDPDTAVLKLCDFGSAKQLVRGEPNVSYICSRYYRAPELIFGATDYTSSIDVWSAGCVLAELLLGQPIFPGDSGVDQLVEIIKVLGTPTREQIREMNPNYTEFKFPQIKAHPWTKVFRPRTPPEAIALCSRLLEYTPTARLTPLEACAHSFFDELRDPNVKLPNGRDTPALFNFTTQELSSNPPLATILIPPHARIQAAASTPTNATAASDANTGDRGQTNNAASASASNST
T20 sequence (P11309 whole entry): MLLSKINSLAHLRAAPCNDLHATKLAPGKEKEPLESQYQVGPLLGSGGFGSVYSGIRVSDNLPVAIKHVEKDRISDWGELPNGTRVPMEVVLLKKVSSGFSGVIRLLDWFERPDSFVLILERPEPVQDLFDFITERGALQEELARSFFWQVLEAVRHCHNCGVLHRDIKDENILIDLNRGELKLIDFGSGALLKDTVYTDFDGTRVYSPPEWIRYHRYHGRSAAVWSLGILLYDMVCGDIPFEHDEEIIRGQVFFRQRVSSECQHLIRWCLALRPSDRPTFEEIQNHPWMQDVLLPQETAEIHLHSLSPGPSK
T5 sequence (P00519 whole entry E255K): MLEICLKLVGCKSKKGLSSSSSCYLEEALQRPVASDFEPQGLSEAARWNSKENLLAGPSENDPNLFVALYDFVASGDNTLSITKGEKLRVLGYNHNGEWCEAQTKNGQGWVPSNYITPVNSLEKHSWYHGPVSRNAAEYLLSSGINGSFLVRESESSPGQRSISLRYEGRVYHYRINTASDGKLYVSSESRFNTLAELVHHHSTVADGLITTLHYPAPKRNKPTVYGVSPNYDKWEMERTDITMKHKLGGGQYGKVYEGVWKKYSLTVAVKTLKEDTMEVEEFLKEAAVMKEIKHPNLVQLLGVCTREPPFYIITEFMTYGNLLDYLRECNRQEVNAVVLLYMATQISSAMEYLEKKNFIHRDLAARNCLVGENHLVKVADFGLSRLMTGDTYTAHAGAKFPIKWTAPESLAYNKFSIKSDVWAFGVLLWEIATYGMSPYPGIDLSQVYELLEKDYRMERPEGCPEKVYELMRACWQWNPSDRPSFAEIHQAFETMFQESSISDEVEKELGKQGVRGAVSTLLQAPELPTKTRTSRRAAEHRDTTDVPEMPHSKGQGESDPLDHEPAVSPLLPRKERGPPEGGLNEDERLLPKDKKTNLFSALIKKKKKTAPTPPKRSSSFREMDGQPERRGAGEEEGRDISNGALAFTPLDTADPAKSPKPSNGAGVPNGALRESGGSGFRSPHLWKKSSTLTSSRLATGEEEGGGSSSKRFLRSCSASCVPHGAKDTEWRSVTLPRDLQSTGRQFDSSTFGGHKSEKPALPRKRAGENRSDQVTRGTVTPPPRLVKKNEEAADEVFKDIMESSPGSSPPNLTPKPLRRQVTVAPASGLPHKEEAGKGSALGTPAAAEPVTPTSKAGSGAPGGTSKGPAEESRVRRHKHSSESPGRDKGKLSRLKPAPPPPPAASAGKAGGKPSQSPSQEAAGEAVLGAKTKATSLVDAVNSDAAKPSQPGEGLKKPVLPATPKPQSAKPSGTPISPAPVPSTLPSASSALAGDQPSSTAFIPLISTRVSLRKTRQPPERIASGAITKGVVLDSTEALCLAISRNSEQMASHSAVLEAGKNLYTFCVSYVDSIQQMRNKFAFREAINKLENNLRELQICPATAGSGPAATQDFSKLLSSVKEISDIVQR
T6 sequence (Q9BVS4 whole entry): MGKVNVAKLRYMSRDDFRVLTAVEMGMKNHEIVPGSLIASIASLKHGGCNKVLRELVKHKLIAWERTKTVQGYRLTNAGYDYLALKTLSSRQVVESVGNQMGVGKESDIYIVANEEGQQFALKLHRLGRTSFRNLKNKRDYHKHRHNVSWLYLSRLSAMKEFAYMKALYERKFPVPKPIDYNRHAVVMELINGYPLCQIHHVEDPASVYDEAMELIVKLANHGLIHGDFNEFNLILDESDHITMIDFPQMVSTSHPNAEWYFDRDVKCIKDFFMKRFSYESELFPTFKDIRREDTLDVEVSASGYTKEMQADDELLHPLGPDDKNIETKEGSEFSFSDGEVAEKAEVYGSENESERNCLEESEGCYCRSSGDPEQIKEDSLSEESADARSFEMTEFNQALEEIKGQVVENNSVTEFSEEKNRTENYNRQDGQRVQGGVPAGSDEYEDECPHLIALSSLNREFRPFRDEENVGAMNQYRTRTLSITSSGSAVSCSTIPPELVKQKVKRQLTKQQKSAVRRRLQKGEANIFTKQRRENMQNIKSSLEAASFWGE
T12 sequence (O60674 849-1124 limits assumed): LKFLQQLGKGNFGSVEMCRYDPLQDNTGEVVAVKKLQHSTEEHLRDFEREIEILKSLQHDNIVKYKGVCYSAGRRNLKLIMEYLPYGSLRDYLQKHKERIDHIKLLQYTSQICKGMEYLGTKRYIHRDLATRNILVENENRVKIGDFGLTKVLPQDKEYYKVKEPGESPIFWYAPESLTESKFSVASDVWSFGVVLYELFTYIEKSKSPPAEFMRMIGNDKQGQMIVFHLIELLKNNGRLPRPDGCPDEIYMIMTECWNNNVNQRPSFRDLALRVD
T21 sequence (Q9H093 whole entry): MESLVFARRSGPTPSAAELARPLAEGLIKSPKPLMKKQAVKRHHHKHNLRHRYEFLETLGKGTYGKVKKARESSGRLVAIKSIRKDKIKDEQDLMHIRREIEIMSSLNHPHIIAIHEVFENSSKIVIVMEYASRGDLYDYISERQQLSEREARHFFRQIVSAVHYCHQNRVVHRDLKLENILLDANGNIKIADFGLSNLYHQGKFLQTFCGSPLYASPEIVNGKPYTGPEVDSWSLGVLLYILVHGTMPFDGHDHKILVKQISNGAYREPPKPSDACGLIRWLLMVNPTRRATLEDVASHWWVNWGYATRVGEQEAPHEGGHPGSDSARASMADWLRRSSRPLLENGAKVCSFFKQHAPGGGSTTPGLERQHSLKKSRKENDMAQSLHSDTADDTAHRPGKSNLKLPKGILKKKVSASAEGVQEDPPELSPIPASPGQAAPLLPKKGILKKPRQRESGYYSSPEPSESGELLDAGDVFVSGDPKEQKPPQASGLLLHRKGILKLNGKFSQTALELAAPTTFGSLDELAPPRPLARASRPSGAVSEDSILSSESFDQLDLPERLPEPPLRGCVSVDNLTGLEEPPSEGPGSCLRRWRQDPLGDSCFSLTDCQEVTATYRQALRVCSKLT

Compound: COc1ccc2c(c1)[nH]c1c(C)nccc12 [Harmine, harmine]
- Percent Control (CDK9): 67%
- Percent Control (EGFR): 96%
- Percent Control (FLT3): 85%
- Percent Control (MKNK1): 79%
- Percent Control [1]: 74%
- Percent Control (RIOK2): 74%
- Percent Control (VEGFR2): 78%
- Percent Control (PDPK1): 100%
- Percent Control (BMPR2): 96%
- Percent Control (BRAF): 100%
- Percent Control (PKAC-alpha): 88%
- Percent Control [2]: 92%
- Percent Control (GSK3B): 71%
- Percent Control (ABL1-phosphorylated): 100%
- Percent Control (SRPK3): 84%
- Percent Control (YANK3): 77%
- Percent Control (ERBB2): 85%
- Percent Control (KIT(V559D, T670I)): 92%
- Percent Control (ABL1-nonphosphorylated): 90%
- Percent Control (PIM1): 45%
- Percent Control (SNARK): 95%
- Percent Control (MARK3): 91%
- Percent Control (ROCK2): 43%
- Percent Control (PRKCE): 91%
- Percent Control (PLK3): 75%
- Percent Control (p38-alpha): 95%
- Percent Control (MEK1): 79%
- Percent Control (BTK): 100%
- Percent Control (ERK1): 99%
- Percent Control (CDK2): 98%
- Percent Control (DYRK1B): 6.1%
- Percent Control (ACVR1B): 91%
- Percent Control (PDGFRA): 90%
- Percent Control (CSF1R): 88%
- Percent Control (CDK3): 100%
- Percent Control (MKNK2): 22%
